Source: ChEMBL document CHEMBL1926534, “Efficient synthesis of a novel m-phenylene derivative as a selective EP4 agonist inducing follicular growth and maturation in the ovary” (Bioorg Med Chem Lett, 2011)

What was measured:
[1] = Agonist activity at EP3 receptor in guinea pig uterus assessed as concentration required to reach uterine motility index number 2000; type: functional, Cavia porcellus
[2] = target: Prostaglandin E2 receptor EP4 subtype (Oryctolagus cuniculus, UniProt Q28691); assay: Agonist activity at rabbit EP4 receptor assessed as relaxation of Kcl-induced tissue contraction by isometric transducer method; type: functional
[3] = Agonist activity at Prostaglandin E2 receptor EP1/EP2 in guinea pig ileum; type: functional, tissue-based; conditions: Cavia porcellus

Sequence of Prostaglandin E2 receptor EP4 subtype (Q28691 whole entry): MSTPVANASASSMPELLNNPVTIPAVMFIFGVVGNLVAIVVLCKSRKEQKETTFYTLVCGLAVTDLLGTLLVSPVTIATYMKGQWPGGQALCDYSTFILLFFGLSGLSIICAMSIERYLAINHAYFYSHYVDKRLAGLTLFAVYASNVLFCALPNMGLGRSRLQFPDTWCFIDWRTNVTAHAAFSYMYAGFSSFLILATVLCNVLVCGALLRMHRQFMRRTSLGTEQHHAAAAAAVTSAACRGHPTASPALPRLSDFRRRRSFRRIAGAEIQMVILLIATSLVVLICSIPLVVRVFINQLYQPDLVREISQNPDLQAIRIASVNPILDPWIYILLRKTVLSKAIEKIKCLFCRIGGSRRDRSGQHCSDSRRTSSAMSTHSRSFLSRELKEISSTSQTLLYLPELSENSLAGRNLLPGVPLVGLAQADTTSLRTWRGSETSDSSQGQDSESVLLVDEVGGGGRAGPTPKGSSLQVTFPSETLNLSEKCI

EC50 [2] [nM]	EC50 [3] [nM]	SMILES	EC [1] [nM]
2.6	3400	O[C@H](/C=C/[C@@H]1[C@H]2c3cccc(CCc4nnn[nH]4)c3O[C@H]2C[C@H]1O)CC1CCCCC1	2800
5.7	150	O=C(O)CCc1cccc2c1O[C@H]1C[C@@H](O)[C@H](/C=C/[C@@H](O)CC3CCCCC3)[C@@H]21	540
